Experimental data taken from patent US20070254907A1, “COMPOSITIONS AND METHODS FOR CONTROLLING INFESTATION” (HATCHTECH PTY LTD, priority 2003, published 2007).
Several values for one entry are separate records, joined by “and”; a condition that tells them apart may be missing. Identical values can stand only once.

Experiments:
[1] = tested on: Lice (L) and Plutella (P) eggs; test: whole plant or invertebrate; conditions: read-out: Ovicidal activity %
[2] = tested on: Lice (L) and Plutella (P) eggs
lice eggs = test: whole plant or invertebrate; type: in vivo; conditions: for H (number of eggs successfully hatched) / Ph (number of eggs partly hatched): per replicate, concentration not given
Plutella xylostella eggs [3] = test: whole plant or invertebrate; type: in vivo; conditions: for inhibition of Plutella egg hatching: 1% diethoxyglycol; for Ovicidal activity % / Activity class 0 = inactive 1 = low 2 = med 3 = high: Plutella (P); for Activity class 0 = inactive 1 = low 2 = med 3 = high: listed as of 1 mM
Description: The ovicidal efficacy of 2-acetyl-1-tetralone was also tested against Plutella eggs.

[4] = tested on: Helicoverpa armigera eggs; test: Egg hatching of Helicoverpa armigera; conditions: for Number hatched / Number unhatched / % Inhibition: Table 13; for % Inhibition: relative to the control (100% MeOH)
Description: A range of concentrations were made up in water and the eggs placed in the solutions for approximately 2-10 seconds. The eggs which had been laid on cloth were then blotted dry and placed in an incubator at 26° C. for 3-4 days until hatch. Hatch rates were then assessed compared to a water only treated control (FIG. 5).
The compound was dissolved in 100% diethoxyglycol and diluted to a final concentration of 1% in water.
Several hundred Helicoverpa armigera eggs (Tatura×Toowoomba strains) were collected, that had been laid on fine mesh cloth over a 24 hour period.
Batches of Helicoverpa eggs were exposed to a specific inhibitor solution for between 2-10 seconds the excess solution drained by blotting with dry tissue paper. The egg masses were then placed in a humid box at 25 degrees until egg hatch. Control eggs were exposed to absolute methanol as described above. At day 6 post laying the eggs were assessed from the different treatments and the percentage of egg hatch determined relative to the control as shown in Table 12.
Batches of Helicoverpa eggs were then exposed to a specific inhibitor solution for between 2-10 seconds the excess solution drained by blotting with dry tissue paper. The egg masses were then placed in a humid box at 25° C. until egg hatch. Control eggs were exposed to absolute methanol as described above. At day 6 post laying the eggs were assessed from the different treatments and the percentage of egg hatch determined relative to the control as shown in Table 13.

Plutella xylostella eggs [5] = test: Glass house ovicidal test on sprayed cabbage plants; type: in vivo; conditions: 10 eggs per cabbage plant, one value per plant
Source text: A number of treatments and replicates were set up in the glass house using young cabbage plants that were at the 4-5 leaf stage. Plutella xylostella eggs were laid by gravid females on the leaves such that each plant contained 10 eggs. The plants were sprayed with a commercial ovicide or using the compounds 5,5′-dimethyl-2,2′-dipyridyl and 5,5′diethyl-2,2′-dipyridyl in a formulation at the rate of 200 L/Ha using a track sprayer. Controls of water only or Placebo only were also included. The ovicidal efficacy was monitored over a number of days an the number of eggs hatching and caterpillar larvae emerging recorded (Table 22).

head lice eggs = test: Head lice egg hatching with formulated compound; type: in vivo; conditions: 20 mM formulation, 10 minutes exposure, n=10 eggs
Description: Gravid female lice were permitted to lay eggs. The eggs were counted, inspected under a light microscope and all eggs that appeared undamaged were allocated to one of two treatment groups. One group was exposed to 5′-dimethyl-2,2′-dipyridyl in a formulation, while the second group was exposed to the formulation only. The protocol was as follows:
Treatments: 5'-dimethyl-2,2'dipyridyl (20mM) n=10
Vehicle control only n=10
Exposure time: 10 minutes
Wash time: 1 minute @˜37° C.
Incubation: All eggs were placed at 31° C. in a humid incubator and monitored for signs of development specifically of the eye and subsequent hatching, see Table 21.

[6] = Table 17, eggs laid on cloth, 1 mM in 1% diethoxyglycol
[7] = Table 17, 1 mM, relative to control (1% diethoxyglycol)
[8] = Table 10, eggs laid on cloth, 1 mM
[9] = Table 10, eggs laid on cloth, 10 mM
[10] = Table 11, eggs laid on parafilm, 1 mM
[11] = Table 11, eggs laid on parafilm, 10 mM
[12] = 0-24 h, 10 mM (200 L/Ha), with wetting agent 0.3 ml/L
[13] = Table 17, eggs laid on cloth, 0.1 mM in 1% diethoxyglycol

COc1ccc(C(=O)CC(=O)c2ccc(C(C)(C)C)cc2)cc1 [1-(4-tert-butylphenyl)-3-(4-methoxyphenyl)-propane-1,3-dione]
inhibition at 10000 µM [1]: 0%
Logit calc pLD50 ([2]; in vivo): 0.7
Pref pLD50 ([2]; in vivo): <2

O=C(CC(=O)c1cc(Cl)ccc1O)c1ccccc1 [1-(5-Chloro-2-hydroxy-phenyl)-3-phenyl-propane-1,3-dione]
inhibition at 10000 µM [1]: 0%

c1ccc(-c2cccc(-c3ccccn3)n2)nc1 [2,2′,6,2″-terpyridine]
Ovicidal activity % (lice eggs; Lice (L), 10 mM): 0.00%
Activity class 0 = inactive 1 = low 2 = med 3 = high (lice eggs; Lice (L), listed as of 10 mM): 0 (A pLD50 value less than 2 is considered inactive (Class 0))
inhibition of Plutella egg hatching (Plutella xylostella eggs [3]; 1 mM): complete inhibition
Ovicidal activity % (Plutella xylostella eggs [3]; 1 mM): 100%
Activity class 0 = inactive 1 = low 2 = med 3 = high (Plutella xylostella eggs [3]): 3 (a pLD50 greater than 4 is considered strongly active (Class 3))
Number hatched (Plutella xylostella eggs [3]; [6]): 0
Number unhatched (Plutella xylostella eggs [3]; [6]): 46
% Inhibition (Plutella xylostella eggs [3]; [7]): 100%

c1ccc2nc(-c3ccc4ccccc4n3)ccc2c1 [2,2′-biquinoline]
inhibition at 10000 µM [1]: 0%

c1ccc(-c2ccccn2)nc1 [2,2′-dipyridyl]
lice egg hatching (lice eggs; all time points examined (24-120 hr post egg laying)): completely inhibited
H (number of eggs successfully hatched) (lice eggs; treated 24 hr post egg laying): 0
Ph (number of eggs partly hatched) (lice eggs; treated 24 hr post egg laying): 0
H (number of eggs successfully hatched) (lice eggs; treated 48 hr post egg laying): 0
Ph (number of eggs partly hatched) (lice eggs; treated 48 hr post egg laying): 0
H (number of eggs successfully hatched) (lice eggs; treated 72 hr post egg laying): 0
Ph (number of eggs partly hatched) (lice eggs; treated 72 hr post egg laying): 0
H (number of eggs successfully hatched) (lice eggs; treated 96 hr post egg laying): 1 and 0 (2×)
Ph (number of eggs partly hatched) (lice eggs; treated 96 hr post egg laying): 0
H (number of eggs successfully hatched) (lice eggs; treated 120 hr post egg laying): 0
Ph (number of eggs partly hatched) (lice eggs; treated 120 hr post egg laying): 0
Ovicidal activity % ([2]; Lice (L) and Plutella (P), 10 mM): 100.00%
Activity class 0 = inactive 1 = low 2 = med 3 = high ([2]; Lice (L) and Plutella (P), listed as of 10 mM): 1 (a pLD50 value between 2 and 3 is considered weakly active (Class 1))

c1ccc(Cc2ccccn2)cc1 [2-benzyl-pyridine]
inhibition at 10000 µM [1]: 0%

O=C(CC(=O)C(F)(F)F)c1ccccc1 [4,4,4-Trifluoro-1-phenyl-butane-1,3-dione]
inhibition at 10000 µM [1]: 0%

Cc1ccnc(-c2cc(C)ccn2)c1 [4,4′-dimethyl-2,2′-dipyridyl]
effect on egg hatching of Helicoverpa armigera (words) ([4]; 1 mM): significant inhibition of egg hatching
effect on egg hatching of Helicoverpa armigera (words) ([4]; 10 mM): significant inhibition of egg hatching
Number hatched ([4]; 1 mM): 23
Number unhatched ([4]; 1 mM): 29
% Inhibition ([4]; 1 mM): 66%
Number hatched ([4]; 10 mM): 8
Number unhatched ([4]; 10 mM): 43
% Inhibition ([4]; 10 mM): 84%
effect on egg hatching of Plutella xylostella (words) (Plutella xylostella eggs [3]; 10 and 1 mM): significantly inhibit egg hatching
Ovicidal activity % (Plutella xylostella eggs [3]; 0.1 mM): 65.00%
Ovicidal activity % (Plutella xylostella eggs [3]; 1 mM): 100.00%
Ovicidal activity % (Plutella xylostella eggs [3]; 10 mM): 100.00%
Activity class 0 = inactive 1 = low 2 = med 3 = high (Plutella xylostella eggs [3]): 3 (a pLD50 greater than 4 is considered strongly active (Class 3))
Number hatched (Plutella xylostella eggs [3]; [8]): 0
Number unhatched (Plutella xylostella eggs [3]; [8]): 30
% Inhibition (Plutella xylostella eggs [3]; Table 10, eggs laid on cloth, 1 mM, relative to controls): 100%
Number hatched (Plutella xylostella eggs [3]; [9]): 0
Number unhatched (Plutella xylostella eggs [3]; [9]): 36
% Inhibition (Plutella xylostella eggs [3]; Table 10, eggs laid on cloth, 10 mM, relative to controls): 100%
Number hatched (Plutella xylostella eggs [3]; [10]): 10
Number unhatched (Plutella xylostella eggs [3]; [10]): 107
% Inhibition (Plutella xylostella eggs [3]; Table 11, eggs laid on parafilm, 1 mM, relative to controls): 91%
Number hatched (Plutella xylostella eggs [3]; [11]): 0
Number unhatched (Plutella xylostella eggs [3]; [11]): 139
% Inhibition (Plutella xylostella eggs [3]; Table 11, eggs laid on parafilm, 10 mM, relative to controls): 100%

c1cnc2ccc3ncccc3c2c1 [4,7-phenanthroline]
inhibition at 10000 µM [1]: 0%

c1ccc(-c2cc(N3CCOCC3)c3ccccc3n2)nc1 [4-Morpholin-4-yl-2-pyridin-2-yl-quinoline]
inhibition at 10000 µM [1]: 0%

CCc1ccc(-c2ccc(CC)cn2)nc1 [5,5′-diethyl-2,2′-dipyridyl]
# LARVAE EMERGED (Plutella xylostella eggs [5]; 0-24 h, 10 mM (200 L/Ha) No Wetting Agent): 0
# LARVAE EMERGED (Plutella xylostella eggs [5]; [12]): 0
inhibition of Plutella egg hatching (Plutella xylostella eggs [3]; 0.1 mM): Partial inhibition of egg hatching
inhibition of Plutella egg hatching (Plutella xylostella eggs [3]; 1 mM): complete inhibition
Number hatched (Plutella xylostella eggs [3]; [13]): 22
Number unhatched (Plutella xylostella eggs [3]; [13]): 34
Number hatched (Plutella xylostella eggs [3]; [6]): 0
Number unhatched (Plutella xylostella eggs [3]; [6]): 34
% Inhibition (Plutella xylostella eggs [3]; Table 17, 0.1 mM, relative to control (1% diethoxyglycol)): 31%
% Inhibition (Plutella xylostella eggs [3]; [7]): 100%

Cc1ccc(-c2ccc(C)cn2)nc1 [5,5′dimethyl-2,2′-dipyridyl]
# LARVAE EMERGED (Plutella xylostella eggs [5]; [12]): 0
# LARVAE EMERGED (Plutella xylostella eggs [5]; 0-24 h, 20 mM (200 L/Ha), with wetting agent 0.3 ml/L): 0
# LARVAE EMERGED (Plutella xylostella eggs [5]; 24-48 h, 10 mM (200 L/Ha), with wetting agent 0.3 ml/L): 0
# LARVAE EMERGED (Plutella xylostella eggs [5]; 24-48 h, 20 mM (200 L/Ha), with wetting agent 0.3 ml/L): 0
# LARVAE EMERGED (Plutella xylostella eggs [5]; 48-72 h, 20 mM (200 L/Ha), with wetting agent 0.3 ml/L): 0

Cc1ccc(-c2ccc(C)cn2)nc1 [Ha44]
Stage of development: number of eggs with eye development (head lice eggs; Day 1): 1 eye development
Stage of development: number of eggs with no eye dev. (head lice eggs; Day 1): 9 no eye dev.
Stage of development: number of eggs hatched (head lice eggs; Day 4): 1 hatched
Stage of development: number of eggs with eye development (head lice eggs; Day 4): 1 eye development
Stage of development: number of eggs with no eye dev. (head lice eggs; Day 4): 8 no eye dev.
Stage of development: number of eggs with eye development (head lice eggs; Day 5): 1 eye development
Stage of development: number of eggs with no eye dev. (head lice eggs; Day 5): 8 no eye dev.
Stage of development: number of eggs with eye development (head lice eggs; Day 6): 1 eye development
Stage of development: number of eggs with no eye dev. (head lice eggs; Day 6): 8 no eye dev.
Stage of development: number of eggs with eye development (head lice eggs; Day 7): 1 eye development
Stage of development: number of eggs with no eye dev. (head lice eggs; Day 7): 8 no eye dev.
Stage of development: number of eggs with eye development (head lice eggs; Day 12): 1 eye development
Stage of development: number of eggs with no eye dev. (head lice eggs; Day 12): 8 no eye dev.
